Assay results from ChEMBL document CHEMBL1201862, “PubChem BioAssay data set” (2004).
The source made the active and inactive calls. For most assays here, no stated cut-off is given here; in the data, actives have a measured EC50 and inactives only a lower limit.

Tests used:
[1] = growth suppression of beta-catenin-knockout colon cells, dose response, cell-based, HCT116, human colon tumor (AID 1045); format: functional;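 further: HCT116 colon tumor cells with beta catenin knocked out; cells exposed to compound for 60 hours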
[2] = target: T1, Ubiquitin-conjugating enzyme E2 N (Homo sapiens, UniProt P61088); format: functional;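 further: Dose-response confirmation in a TR-FRET assay detecting UBC13-driven polyubiquitin chain formation, inhibition measured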
T1 sequence (P61088 whole entry): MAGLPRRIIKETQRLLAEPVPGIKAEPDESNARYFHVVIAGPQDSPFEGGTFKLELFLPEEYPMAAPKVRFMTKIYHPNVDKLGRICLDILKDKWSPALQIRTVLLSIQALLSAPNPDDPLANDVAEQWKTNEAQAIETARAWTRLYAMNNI

[3] = Luminescence Cell-Based Dose Response HTS to Identify Activators of Luciferase Translation or Activity in H4 […] Cells. [Related pubchem assays: 1829 (Project Summary), 1814 (Primary HTS)]; format: functional
[4] = test system: H4; experiment: Luminescence Cell-Based Dose Response HTS to Identify Activators of 5'UTR Stem-Loop Driven Prion Protein mRNA Translation in H4 Neuroglioblastoma Cells. [Related pubchem assays: 1829 (Project Summary), 1814 (Primary HTS)]; format: functional; details: Homo sapiens
[5] = target: T2, RNA-binding protein pos-1 (Caenorhabditis elegans, UniProt G5EF15); experiment: inhibitors of POS-1/mex-3 RNA binding, dose response, biochemical, fluorescence polarization (AID 1964);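 further: purified POS-1 fused to maltose binding protein made in E. coli; potency of compounds blocking POS-1 binding to fluorescent RNA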
T2 sequence (G5EF15 whole entry): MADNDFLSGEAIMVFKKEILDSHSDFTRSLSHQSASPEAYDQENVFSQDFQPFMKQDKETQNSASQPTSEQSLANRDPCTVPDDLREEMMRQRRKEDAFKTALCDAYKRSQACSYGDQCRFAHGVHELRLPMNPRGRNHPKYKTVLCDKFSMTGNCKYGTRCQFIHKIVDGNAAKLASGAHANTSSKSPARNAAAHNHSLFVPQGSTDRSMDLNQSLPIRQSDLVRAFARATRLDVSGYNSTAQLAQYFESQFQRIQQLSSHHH

[6] = target: T3, Zinc finger protein mex-5 (Caenorhabditis elegans, UniProt Q9XUB2); experiment: MEX-5/TCR-2 RNA interaction inhibitors, dose response, biochemical, C. elegans, fluorescence polarization (AID 1960)
T3 sequence (Q9XUB2 whole entry): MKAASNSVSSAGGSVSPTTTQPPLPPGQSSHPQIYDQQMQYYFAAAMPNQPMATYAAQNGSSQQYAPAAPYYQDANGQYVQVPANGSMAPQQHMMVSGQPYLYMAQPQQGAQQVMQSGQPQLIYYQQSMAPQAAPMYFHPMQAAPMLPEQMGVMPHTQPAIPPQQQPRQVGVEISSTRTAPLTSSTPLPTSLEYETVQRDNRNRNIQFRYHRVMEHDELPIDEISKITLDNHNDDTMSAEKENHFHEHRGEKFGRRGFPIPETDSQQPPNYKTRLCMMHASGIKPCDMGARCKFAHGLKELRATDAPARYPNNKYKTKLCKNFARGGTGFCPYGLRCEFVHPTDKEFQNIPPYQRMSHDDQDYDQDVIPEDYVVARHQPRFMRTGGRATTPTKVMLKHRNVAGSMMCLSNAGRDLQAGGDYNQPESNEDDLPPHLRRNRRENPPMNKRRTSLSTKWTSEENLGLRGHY

[7] = test system: Streptococcus sp. 'group A'; experiment: growth inhibition of control SK(-) GAS strain, dose response, counter-screen for streptokinase expression inhibitor project, luminescence, kanamycin, BacTiterGlo, confirmation (AID 1900); format: functional, organism-based
[8] = inhibitors of intracellular T. cruzi replication, confirmation, NIH3T3 host cells, beta-gal luminescence (AID 2044); format: functional, cell-based;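 further: intracellular parasites grown in NIH/3T3 mouse fibroblasts as host cells; luminescent beta-galactosidase reporter signal from transgenic T. cruzi replicating inside host cells; inhibitors lower the luminescence signal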
[9] = cytotoxicity toward NIH3T3 fibroblasts, dose response, counter-screen, cell-based, ATP luminescence, mouse fibroblasts (AID 2010); format: functional;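 further: cells exposed to compound for about 90 hours before reading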
[10] = test system: Streptococcus; experiment: Group A Streptococcus viability loss, dose response, counter-screen for streptokinase expression inhibitor project, luminescence, BacTiterGlo (AID 1915); format: functional, organism-based;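 further: potency for reduction of bacterial viability or growth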
[11] = test system: Vero; experiment: cells; format: functional; details: Chlorocebus sabaeus
[12] = ZM109 Env clade C HIV-1 fusion inhibitors, dose response, HeLa effector, CEM target cells, luciferase, cherry-pick (AID 652058); format: functional, cell-based
[13] = inhibitors of clade B AD8 Env fusion, dose response, cell-based, cherry-pick (AID 652062); format: functional;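 further: luciferase signal from cell-cell fusion driven by HIV-1 clade B AD8 Env; potency is for inhibitors of fusion seen as a drop in luminescence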
[14] = P. falciparum Dd2 growth inhibitors, dose response, SYBR Green, cherry-picked samples (AID 1159567); format: functional, cell-based
[15] = target: T4, Corticotropin-releasing factor receptor 2/Corticotropin-releasing factor-binding protein (Homo sapiens, UniProt P24387+Q13324); experiment: activators of CRF receptor 2 with binding protein – uHTS hits, confirmation (AID 602473); format: functional; details: read-out: EC50_Mean
T4 sequence (Q13324 whole entry): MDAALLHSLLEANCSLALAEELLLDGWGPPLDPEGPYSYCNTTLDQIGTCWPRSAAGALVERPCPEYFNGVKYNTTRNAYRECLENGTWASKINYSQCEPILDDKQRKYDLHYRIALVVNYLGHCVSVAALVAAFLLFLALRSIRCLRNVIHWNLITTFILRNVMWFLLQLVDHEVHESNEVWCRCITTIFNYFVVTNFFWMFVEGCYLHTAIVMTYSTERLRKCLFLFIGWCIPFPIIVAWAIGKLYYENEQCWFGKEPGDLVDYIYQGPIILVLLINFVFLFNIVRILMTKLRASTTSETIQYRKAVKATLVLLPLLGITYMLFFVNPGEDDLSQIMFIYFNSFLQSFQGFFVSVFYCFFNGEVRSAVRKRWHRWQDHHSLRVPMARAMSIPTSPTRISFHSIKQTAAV
T4 sequence (P24387 whole entry): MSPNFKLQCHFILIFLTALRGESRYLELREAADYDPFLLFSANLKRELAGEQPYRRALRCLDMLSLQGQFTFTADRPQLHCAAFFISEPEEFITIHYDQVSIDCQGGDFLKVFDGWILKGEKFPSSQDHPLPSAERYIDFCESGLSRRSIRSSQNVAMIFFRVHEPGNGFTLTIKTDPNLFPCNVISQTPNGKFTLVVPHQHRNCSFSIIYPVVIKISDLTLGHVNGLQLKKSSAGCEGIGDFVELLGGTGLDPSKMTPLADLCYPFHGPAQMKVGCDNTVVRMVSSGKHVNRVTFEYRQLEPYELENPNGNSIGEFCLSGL

[16] = HEp-2 cell cytotoxicity, dose response, cytotoxicity control for RSV inhibitor project, HTS (AID 2410); format: functional; details: human respiratory syncytial virus
[17] = test system: BJ; experiment: cytotoxicity toward BJ-TERT fibroblasts, dose response, cell-based, RAS-independent, luminescence (AID 1933); format: functional; details: Homo sapiens
[18] = test system: BJ; experiment: cells; format: functional, cell-based; details: Homo sapiens
[19] = test system: BJ; experiment: cytotoxicity toward BJ-TERT-LT-ST fibroblasts, dose response, cell-based, RAS-independent, luminescence (AID 1935); format: functional; details: Homo sapiens;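 further: BJ fibroblasts immortalized with TERT plus LT and ST oncogenes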
[20] = cytotoxicity toward DRD oncogenic fibroblasts, dose response, cell-based, non-viral oncogenic, luminescence (AID 1934); format: functional; details: Homo sapiens
[21] = cells; format: functional
[22] = Luminescence Cell-Based Dose Retest to Confirm Inhibitors of Cancer Stem Cells. [Related pubchem assays (depositor defined):AID2717, AID2721]; format: functional; details: Homo sapiens
[23] = test system: INS1; experiment: beta cell apoptosis inhibitors, cytokine rescue, dose response, luminescence, retest (AID 449756); format: functional, cell-based; details: Rattus norvegicus;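 further: cell death triggered by IL-1 beta plus TNF-alpha plus IFN-gamma mixture; protective hits raise ATP signal compared with cytokine alone wells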
[24] = target: T5, Streptokinase A (Streptococcus pyogenes serotype M1, UniProt P10520); experiment: S. pyogenes streptokinase expression inhibitors, potency, dose response, plasminogen activation absorbance, OD405 (AID 1914); format: functional, Streptococcus pyogenes M1 GAS;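 further: secreted streptokinase activity via plasminogen activation per viability signal from cell pellet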
T5 sequence (P10520 whole entry): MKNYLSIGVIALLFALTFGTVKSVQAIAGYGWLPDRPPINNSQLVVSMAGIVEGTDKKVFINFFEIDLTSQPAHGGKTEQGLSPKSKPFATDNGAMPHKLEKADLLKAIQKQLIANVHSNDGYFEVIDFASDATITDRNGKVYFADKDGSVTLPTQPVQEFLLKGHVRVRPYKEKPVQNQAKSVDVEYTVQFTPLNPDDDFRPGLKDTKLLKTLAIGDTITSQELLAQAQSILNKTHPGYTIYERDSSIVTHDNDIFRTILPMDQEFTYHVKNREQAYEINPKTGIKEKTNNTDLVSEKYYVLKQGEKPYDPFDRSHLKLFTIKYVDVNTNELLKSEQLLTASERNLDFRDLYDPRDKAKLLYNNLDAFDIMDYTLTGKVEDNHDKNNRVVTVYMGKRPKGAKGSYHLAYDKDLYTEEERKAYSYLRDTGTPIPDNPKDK

[25] = microbe, parasite or virus in culture; format: functional; details: Mycobacterium tuberculosis
[26] = growth suppression of PTEN-null colon cells, dose response, cell-based, HCT116 PTEN knockout (AID 1047); format: functional;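 further: HCT116 colon tumor cells with PTEN knocked out; cells exposed to compound for 60 hours before readout; potency for loss of cell viability measured by luminescence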

Cc1cc(NC(=O)CSc2nc3c(c(=O)n2-c2ccc(Br)cc2)SCC3)no1
EC50 [1]: 155 µM (active)

CC1=CC(C)(C)n2c(O)c(/N=N/C(=N)S)c3cc(C)cc1c32
IC50 [2]: > 20 µM (inactive)

NCCCC[C@@H](C(=O)N1CCNCC1)n1cc(CN)nn1
IC50 [2]: > 20 µM (inactive)

CCOC(=O)c1sc2nc3n(c(=O)c2c1C)CCCCC3
EC50 [3]: 27.9 µM (active) | EC50 [4]: 101 µM (active)

O=C1Nc2cc(Cl)cnc2N2CCCC12 (stereo not drawn)
EC50 [5]: 16.8 µM (active) | EC50 [6]: 12.5 µM (active)

CCN(CC)c1ccc(N=Nc2nc[nH]n2)cc1
EC50 [5]: 73.4 µM (active) | EC50 [6]: > 300 µM (inconclusive)

COc1cc(/C=C/c2ccc3cccc(O)c3n2)c(Br)cc1O
EC50 [7]: 0.865 µM (active) | EC50 [8]: 3.92 µM (active) | EC50 [9]: > 60 µM (not active) | EC50 [10]: 2.68 µM (active) | CC50 [11]: 8.46 µM (active)

Cc1cc(O)c(CN(C)C)c2c1C(=O)/C(=C/c1ccco1)O2
EC50 [5]: 32.1 µM (active) | EC50 [6]: 39.8 µM (active)

COC(=O)C1CCN(C(=O)COC(=O)c2cc(S(=O)(=O)N3CCOCC3)ccc2C)CC1
AC50 [12]: 17.5 µM (active) | AC50 [13]: 45.6 µM (active)

Cc1ccccc1S(=O)(=O)N1[C@H](C#N)[C@H](c2ccc(C#CC3CCCC3)cc2)[C@@H]1CO
AC50 [14]: 5.11 µM (active)

O=[N+]([O-])c1ccc2nc(O)c(/C=C(\O)c3ccccc3)nc2c1
EC50 [5]: 20.1 µM (active) | EC50 [6]: > 300 µM (inconclusive)

C=CCC[C@@H](Cc1ccc(F)cc1)C(=O)OC[C@H](Cc1c[nH]c2ccccc12)NC(=O)[C@@H](CC=C)CC(=O)NCCO
EC50 [15]: 11.4 µM (active)

CN(C)c1ccc(/C=C2\C(=N)N3N=C(CC(=O)N4CCCCC4)SC3=NC2=O)cc1
EC50 [15]: 6.36 µM (active)

CCc1nc2sc3c(c2c(=O)n1NC(=O)CCl)CCCC3
CC50 [16]: 10.2 µM (active) | EC50 [17]: > 150 µM (not active) | EC50 [18]: > 150 µM (not active) | EC50 [19]: > 150 µM (not active) | EC50 [20]: > 150 µM (not active)

C/C(=N\NC(=O)CSCc1ccc([N+](=O)[O-])cc1)c1ccccc1O
IC50 [2]: > 20 µM (inactive)

O=C1NC(=O)N(Cc2ccc(F)cc2)C(=O)/C1=C\c1ccc([N+](=O)[O-])s1
IC50 [21]: 24.7 µM (active)

N#CC1=C(N)N2C(=C(C#N)C1c1ccc(Br)cc1)Nc1ccccc12 (stereo not drawn)
EC50 [17]: 11.8 µM (inconclusive) | EC50 [18]: 62.4 µM (active) | EC50 [19]: > 150 µM (inconclusive) | EC50 [20]: 9.84 µM (active) | AC50 [22]: 0.794 µM (active) | AC50 [23]: 3.56 µM (active)

COc1ccc(/C=C/c2nc(S(=O)(=O)c3ccccc3)c(NCCCN(C)C)o2)cc1OC
AC50 [13]: 14.6 µM (active)

C=C[C@](C)(CC[C@@]1(C)C(C)CC(OC2OC(C)C(OC3OC(COC(C)=O)C(O)C(O)C3O)C(O)C2O)[C@@]2(C)C(C)=CCCC12)OC1OC(C)C(O[C@@H]2O[C@@H](C)C(O)C(O)[C@H]2O)C(O)C1O (stereo partly drawn)
IC50 [2]: > 20 µM (inactive)

CCCC(=O)N(CCN1CCOCC1)c1nc2c(C)cccc2s1
IC50 [2]: > 20 µM (inactive)

Cc1ccsc1C1NC(=O)c2c(sc3c2CCN(C)C3)N1 (stereo not drawn)
EC50 [15]: > 53 µM (inactive)

C/C(=N\NC(=O)c1cc([N+](=O)[O-])cc([N+](=O)[O-])c1)c1ccco1
EC50 [8]: 0.768 µM (active) | EC50 [9]: > 60 µM (not active) | IC50 [21]: 3.35 µM (active)

Oc1ccc(Br)cc1/C=N/Nc1nc(N2CCCCC2)nc(N2CCOCC2)n1
EC50 [7]: 3.48 µM (active) | EC50 [24]: 33.6 µM (active) | EC50 [8]: 1.91 µM (active) | CC50 [25]: > 40 µM (active) | EC50 [9]: > 60 µM (not active) | EC50 [10]: 24.7 µM (active)

O=C(NCC1CCCCC1)c1ccc(F)cc1Cl
EC50 [3]: 107 µM (active) | EC50 [4]: > 120 µM (not active)

O=C(NCC1OCCc2ccccc21)c1ccc(NC(=O)c2cccc(Br)c2)cc1 (stereo not drawn)
EC50 [26]: 25.2 µM (active) | EC50 [1]: 36.9 µM (active)

O=C(Nc1ccc(-c2nc3ccccc3c(=O)o2)cc1)c1ccco1
IC50 [21]: 0.84 µM (active)

CCN(CC)S(=O)(=O)c1ccc(N/C=C2\C(=O)N(C)C(=O)C(C#N)=C2C)cc1
EC50 [5]: 32.7 µM (active) | EC50 [6]: 44.4 µM (active)

CCOC(=O)CC(=O)Nc1ccc(C(=O)OCC)cc1
IC50 [21]: 22.4 µM (active)

CCC1(C)Cc2c(sc3nnn(CC(=O)Nc4cccc5ccccc45)c(=O)c23)CO1 (stereo not drawn)
EC50 [26]: 25.8 µM (active) | EC50 [1]: 23.9 µM (active)

Cc1cc(N2CCOCC2)nc(NCc2ccccc2)n1
EC50 [15]: 5.68 µM (active)

COc1ccc(NC(=O)C(c2cc3c(cc2[N+](=O)[O-])OCO3)N(C)c2ccccc2)cc1 (stereo not drawn)
EC50 [15]: > 53 µM (inactive)

Cc1cccc(-c2nc(C#N)c(NCC3CCCO3)o2)c1 (stereo not drawn)
EC50 [3]: 1.97 µM (active) | EC50 [4]: 36 µM (active)
